For the experiment, the system named is P388 leukemia ip, CD2F1 mice, survival T/C. The experiment is described as follows: NCI In Vivo Anticancer Drug Screen. Data for tumor model P388 Leukemia (intraperitoneal) in CD2F1 (CDF1) mice. The following applies: endpoint: median survival time, higher = longer survival. A digest of the protocol:
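Mice carrying the transplanted tumor received test compound or vehicle. Survival was recorded in each group, and the value is the treated-group measurement divided by that of the vehicle-treated control group.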

Where [1] appears, read: dose: 50.0 mg/kg/injection, schedule: Q01DX009 (ip), vehicle: saline.
Setting [2] is: dose: 100.0 mg/kg/injection, schedule: Q04DX003 (ip), vehicle: saline with Tween-80.
Where [3] appears, read: dose: 25.0 mg/kg/injection, schedule: Q01DX005 (ip), vehicle: saline with Tween-80.
Setting [4] is: dose: 50.0 mg/kg/injection, schedule: Q01DX005 (ip), vehicle: saline with Tween-80.
Setting [5] is: dose: 100.0 mg/kg/injection, schedule: Q01DX005 (ip), vehicle: saline with Tween-80.
The mark [6] stands for this setting: dose: 60.0 mg/kg/injection, schedule: Q01DX005 (ip), vehicle: saline with Tween-80.
The mark [7] stands for this setting: dose: 120.0 mg/kg/injection, schedule: Q01DX005 (ip), vehicle: saline with Tween-80.
The mark [8] stands for this setting: dose: 240.0 mg/kg/injection, schedule: Q01DX005 (ip), vehicle: saline with Tween-80.
Where [9] appears, read: dose: 50.0 mg/kg/injection, schedule: Q01DX009 (ip), vehicle: Klucel (hydroxypropylcellulose) (HPC).
Setting [10] is: dose: 100.0 mg/kg/injection, schedule: Q01DX009 (ip), vehicle: Klucel (hydroxypropylcellulose) (HPC).
The mark [11] stands for this setting: dose: 200.0 mg/kg/injection, schedule: Q01DX005 (ip), vehicle: saline with Tween-80.
Where [12] appears, read: dose: 50.0 mg/kg/injection, schedule: Q04DX003 (ip), vehicle: Klucel (hydroxypropylcellulose) (HPC).
Setting [13] is: dose: 100.0 mg/kg/injection, schedule: Q04DX003 (ip), vehicle: Klucel (hydroxypropylcellulose) (HPC).
Where [14] appears, read: dose: 100.0 mg/kg/injection, schedule: Q01DX001 (ip), vehicle: Klucel (hydroxypropylcellulose) (HPC).
Where [15] appears, read: dose: 200.0 mg/kg/injection, schedule: Q01DX001 (ip), vehicle: Klucel (hydroxypropylcellulose) (HPC).
Setting [16] is: dose: 400.0 mg/kg/injection, schedule: Q01DX001 (ip), vehicle: Klucel (hydroxypropylcellulose) (HPC).
Setting [17] is: dose: 25.0 mg/kg/injection, schedule: Q04DX003 (ip), vehicle: saline with Tween-80.

Structures are written as SMILES. Several values for one entry are separate records, joined by “and”; a condition that tells them apart may be missing. Equal values may be shown once. Inconclusive results and toxic doses are left out. Numbered stars: 1 amine (or outer) side, 2 acyl side, 3 side chain; on linkers, the order of the positions; unused ones are H or OH. Square brackets hold non-standard residues; d marks the D form. Peptide text beside a SMILES is read from it. X21 = O=C(C1=CN(Cc2ccccc2)C=CC1N[*:1])[*:2]

For the compound `CCOC(O)C(F)(F)F` (stereo unspecified), the T/C was 105 % of control (dose: 12.5 mg/kg/injection, schedule: Q01DX009 (ip), vehicle: saline); 105 % of control (dose: 25.0 mg/kg/injection, schedule: Q01DX009 (ip), vehicle: saline); 100 % of control under setting [1]; 100 % of control (dose: 100.0 mg/kg/injection, schedule: Q04DX003 (ip), vehicle: saline); 109 % of control (dose: 200.0 mg/kg/injection, schedule: Q04DX003 (ip), vehicle: saline).
In the case of `O=C(CC(=O)C(F)(F)C(F)(F)C(F)(F)F)c1csc2ccccc12`, the T/C under setting [2] is 109 % of control.
In the case of `CN(C)c1ccc(/C=C2/SC(=S)NC2=O)cc1`, the T/C by setting is: under setting [3], 93 % of control; under setting [4], 90 % of control; under setting [5], 87 % of control.
As for `O=C1CSC(c2cccc(Br)c2)N1c1nncs1` (stereo unspecified), the T/C is 101 % of control under setting [6], 97 % of control under setting [7] and 93 % of control under setting [8].
Consider `CCn1c(=O)c2[nH]c(Cl)nc2n(C2CC2)c1=O`, for which the T/C is, setting by setting: under setting [9], 99 % of control; under setting [10], 101 % of control.
As to `CCc1nc(N)nc(N)c1-c1ccc(N2CCN(C)CC2)cc1`, the T/C is, setting by setting: under setting [4], 103 % of control; under setting [5], 100 % of control; under setting [11], 99 % of control.
Take `CC1NC(=O)C(C(C)C)NC(=O)C2=CN(Cc3ccccc3)C=CC2NC(=O)C(C)NC(=O)C(C(C)C)NC(=O)C2=CN(Cc3ccccc3)C=CC2NC1=O` (stereo unspecified) (cyclo([X21]VA[X21]VA); configuration not given here): the T/C under setting [6] was 94 % of control and the T/C under setting [7] is 93 % of control.
Take `CCCN=Cc1cc(Cc2ccc(O)c(C=NCCC)c2)ccc1O`: the T/C is 123 % of control under setting [12]; 104 % of control and 119 % of control under setting [13].
Regarding `COc1cc2c(c(OC)c1OC)C(=O)CCC2`, the T/C is, setting by setting: (dose: 25.0 mg/kg/injection, schedule: Q04DX003 (ip), vehicle: Klucel (hydroxypropylcellulose) (HPC)) 100 % of control; under setting [12], 104 % of control; under setting [13], 92 % of control and 93 % of control; (dose: 400.0 mg/kg/injection, schedule: Q04DX003 (ip), vehicle: Klucel (hydroxypropylcellulose) (HPC)) 90 % of control.
Regarding `Fc1cccc(-n2nc3c(c2-c2cccnc2)CCCc2ccccc2-3)c1`, the T/C is, setting by setting: under setting [14], 106 % of control; under setting [15], 102 % of control; under setting [16], 106 % of control.
As for `Oc1ccc(C(O)CNCCCCCCNCC(O)c2ccc(O)c(O)c2)cc1O` (stereo unspecified), the T/C is 99 % of control and 88 % of control (dose: 33.0 mg/kg/injection, schedule: Q01DX009 (ip), vehicle: saline); 121 % of control and 87 % of control and 96 % of control under setting [1]; 96 % of control (dose: 75.0 mg/kg/injection, schedule: Q01DX009 (ip), vehicle: saline).
On to `Cc1ccc(C(=O)CS(=O)(=O)c2ccc(C)cc2)cc1`, for which the T/C was 101 % of control under setting [9]; 98 % of control under setting [10]; 96 % of control (dose: 200.0 mg/kg/injection, schedule: Q01DX009 (ip), vehicle: Klucel (hydroxypropylcellulose) (HPC)).
As for `CN(C)c1ccc(C2OC2C(=O)n2ccc(=O)n(C(=O)C3OC3c3ccc(N(C)C)cc3)c2=O)cc1` (stereo unspecified), the T/C by setting is: (dose: 100.0 mg/kg/injection, schedule: Q04DX002 (ip), vehicle: saline) 101 % of control; (dose: 200.0 mg/kg/injection, schedule: Q04DX002 (ip), vehicle: saline) 100 % of control; (dose: 400.0 mg/kg/injection, schedule: Q04DX002 (ip), vehicle: saline) 97 % of control.
For `S=C(Nc1ccc(N=Nc2ccccc2)cc1)SCc1ccc2c(c1)OCO2`, the T/C is, setting by setting: (dose: 50.0 mg/kg/injection, schedule: Q01DX009 (ip), vehicle: suspension in saline) 96 % of control; (dose: 100.0 mg/kg/injection, schedule: Q01DX009 (ip), vehicle: suspension in saline) 90 % of control; (dose: 200.0 mg/kg/injection, schedule: Q01DX009 (ip), vehicle: suspension in saline) 92 % of control.
`CCN(CC)CC.CCOc1ccc(NC(=O)N=C=[N-])cc1.[CH-]1CCCCC1.[CH-]1CCCCC1.[CH-]1CCCCC1.[Cl-].[Sn+4]`: the T/C by setting is: (dose: 6.0 mg/kg/injection, schedule: Q01DX005 (ip), vehicle: Klucel (hydroxypropylcellulose) (HPC)) 101 % of control; (dose: 12.0 mg/kg/injection, schedule: Q01DX005 (ip), vehicle: Klucel (hydroxypropylcellulose) (HPC)) 89 % of control.
For `COc1ccc(-c2nc3[nH]c(=S)[nH]c(=O)c3nc2-c2ccc(OC)c(OC)c2)cc1OC`, the T/C is 103 % of control under setting [14], 105 % of control under setting [15] and 90 % of control under setting [16].
With `CN(C)c1ncnc2c1ncn2[C@H]1CCC[C@@H]1O`, the T/C (dose: 0.37 mg/kg/injection, schedule: Q01DX005 (ip), vehicle: Klucel (hydroxypropylcellulose) (HPC)) was 109 % of control; the T/C (dose: 0.75 mg/kg/injection, schedule: Q01DX005 (ip), vehicle: Klucel (hydroxypropylcellulose) (HPC)) was 110 % of control; the T/C (dose: 1.5 mg/kg/injection, schedule: Q01DX005 (ip), vehicle: Klucel (hydroxypropylcellulose) (HPC)) is 112 % of control and 116 % of control.
On to `CCCCCCCCCCCCCCCC(=O)OCCCCCCCCCCC`, for which the T/C was 113 % of control under setting [17]; 95 % of control (dose: 50.0 mg/kg/injection, schedule: Q04DX003 (ip), vehicle: saline with Tween-80); 90 % of control under setting [2].
Regarding `O=C(c1ccc(Br)cc1)c1cnc2nc(-c3ccccc3)c(-c3ccccc3)nn12`, the T/C is, setting by setting: under setting [4], 91 % of control; under setting [5], 96 % of control; under setting [11], 96 % of control.
As to `c1cc2c(cc1NC1=NCCO1)CCC2`, the T/C runs as follows: (dose: 6.25 mg/kg/injection, schedule: Q04DX003 (ip), vehicle: saline with Tween-80) 100 % of control; (dose: 12.5 mg/kg/injection, schedule: Q04DX003 (ip), vehicle: saline with Tween-80) 100 % of control; under setting [17], 100 % of control.
Take `S=C(SCc1c(Cl)cccc1Cl)N1CCSCC1`: the T/C under setting [6] is 102 % of control, the T/C under setting [7] is 93 % of control and the T/C under setting [8] was 96 % of control.
Turning to `COC(=O)C(Cc1ccccc1)NC(=O)C(Cc1cnc[nH]1)N(C(=O)OCc1ccccc1)C(=O)OCc1ccccc1` (stereo unspecified), the T/C was 88 % of control under setting [3], 91 % of control under setting [4], 87 % of control under setting [5] and 89 % of control under setting [11].
As for `COC1(C)C(=O)N(C)C1c1ccccc1` (stereo unspecified), the T/C by setting is: under setting [6], 100 % of control; under setting [7], 97 % of control; under setting [8], 100 % of control.
As to `NS(=O)(=O)c1c[n+]([O-])ccc1Cl`, the T/C is, setting by setting: (dose: 50.0 mg/kg/injection, schedule: Q01DX009 (ip), vehicle: saline with Tween-80) 100 % of control; (dose: 100.0 mg/kg/injection, schedule: Q01DX009 (ip), vehicle: saline with Tween-80) 100 % of control; (dose: 200.0 mg/kg/injection, schedule: Q01DX009 (ip), vehicle: saline with Tween-80) 100 % of control.
For the compound `CC(C)C1SCC(=O)N1N1C(=O)CSC1C(C)C` (stereo unspecified), the T/C runs as follows: under setting [4], 94 % of control; under setting [5], 93 % of control; under setting [11], 98 % of control.
Take `N#Cc1c(-c2ccc(Cl)cc2)cn2c1[nH]c(=O)c1c3c(sc12)CCCC3`: the T/C under setting [6] is 87 % of control and the T/C under setting [7] is 86 % of control.
For the compound `O=c1ccc2ccc3[nH]onc3c2c1`, the T/C under setting [4] is 100 % of control, the T/C under setting [5] is 93 % of control and the T/C under setting [11] was 88 % of control.
For `[N-]=[N+]=NCCN(Cc1ccccc1)Cc1ccccc1`, the T/C under setting [4] was 104 % of control, the T/C under setting [5] was 104 % of control and the T/C under setting [11] is 114 % of control.

These data come from PubChem BioAssay AID330 (DTP/NCI, 2004).
